Calls of active or inactive are those of the source. The rule behind the calls is not given here.
Assays:
[1] = MRT (0 to infinity) in Sprague-Dawley rat at 10 mg/kg, ip incubated for 24 hrs by LC-MS/MS analysis; format: ADME, organism-based; conditions: in vivo
A549 [2] = assay: Induction of autophagy in human A549 cells assessed as downregulation of ERK expression at 5 to 10 uM measured after 24 hrs by Western blot analysis; format: functional, cell-based; conditions: dose 5-10 µM
NSCLC [3] = assay: Antiproliferative activity against human NSCLC cells cultured as 2422 organoids assessed as cell viability incubated for 96 hrs by Celltiter-glo viability assay; format: functional, cell-based
[4] = AUC (0 to infinity) in Sprague-Dawley rat at 10 mg/kg, ip incubated for 24 hrs by LC-MS/MS analysis; format: ADME, organism-based; conditions: in vivo
A549 [5] = assay: Antiproliferative activity against human A549 cells assessed as reduction in cell viability after 72 hrs by MTT assay; format: functional, cell-based; conditions: A549, 72 h
[6] = Half life in Sprague-Dawley rat at 10 mg/kg, ip incubated for 24 hrs by LC-MS/MS analysis; format: ADME, organism-based; conditions: in vivo
A549 [7] = assay: Induction of autophagy in human A549 cells assessed as downregulation of p70S6K level at 5 to 10 uM measured after 24 hrs by Western blot analysis; format: functional, cell-based; conditions: dose 5-10 µM
[8] = Toxicity in BALB/c nude mouse assessed as effect on body weight at 25 to 50 mg/kg, ip measured daily for 3 weeks; format: organism-based; conditions: in vivo, 504 h, dose 25-50 mg/kg
A549 [9] = assay: Induction of apoptosis in human A549 cells assessed as caspase 9 activation at 5 to 10 uM incubated for 24 hrs by Western blot analysis; format: functional, cell-based; conditions: dose 5-10 µM
A549 [10] = assay: Induction of autophagy in human A549 cells assessed as increase in LC3 II expression at 5 to 10 uM measured after 24 hrs by Western blot analysis; format: functional, cell-based; conditions: dose 5-10 µM
NSCLC [11] = assay: Antiproliferative activity against human NSCLC cells cultured as HCC827 organoids assessed as cell viability incubated for 96 hrs by Celltiter-glo viability assay; format: functional, cell-based
[12] = AUC (0 to t) in Sprague-Dawley rat at 10 mg/kg, ip incubated for 24 hrs by LC-MS/MS analysis; format: ADME, organism-based; conditions: in vivo
NSCLC [13] = assay: Antiproliferative activity against human NSCLC cells cultured as H1975 organoids assessed as cell viability incubated for 96 hrs by Celltiter-glo viability assay; format: functional, cell-based
[14] = Toxicity in BALB/c nude mouse assessed as effect on kidney at 25 to 50 mg/kg, ip measured after 3 weeks by H and E staining based analysis; format: organism-based; conditions: in vivo, 504 h, dose 25-50 mg/kg
A549 [15] = assay: Inhibition of colony formation in human A549 cells measured after 7 to 10 days by crystal violet staining analysis; format: functional, cell-based; conditions: dose 5-10 µM, time 7-10 day
A549 [16] = assay: Antitumor activity against human A549 cells xenografted in BALB/c nude mouse assessed as tumor growth inhibition at 25 mg/kg, ip measured daily for 3 weeks relative to control; format: functional; conditions: A549, 504 h, read-out: TGI
A549 [17] = assay: Antitumor activity against human A549 cells xenografted in BALB/c nude mouse assessed as inhibition of tumor volume at 25 to 50 mg/kg, ip measured daily for 3 weeks; format: functional, organism-based; conditions: dose 25-50 mg/kg
[18] = molecular target: T1, Sodium-coupled neutral amino acid symporter 2 (Homo sapiens) (UniProt Q96QD8); assay: Inhibition of SNAT2 (unknown origin) overexpressed in HEK293 cells assessed as reduction in [13C]-Gln uptake preincubated for 5 mins followed by substrate addition and measured after 15 mins; format: cell-based; conditions: time 20.0 min
T1 sequence (whole entry): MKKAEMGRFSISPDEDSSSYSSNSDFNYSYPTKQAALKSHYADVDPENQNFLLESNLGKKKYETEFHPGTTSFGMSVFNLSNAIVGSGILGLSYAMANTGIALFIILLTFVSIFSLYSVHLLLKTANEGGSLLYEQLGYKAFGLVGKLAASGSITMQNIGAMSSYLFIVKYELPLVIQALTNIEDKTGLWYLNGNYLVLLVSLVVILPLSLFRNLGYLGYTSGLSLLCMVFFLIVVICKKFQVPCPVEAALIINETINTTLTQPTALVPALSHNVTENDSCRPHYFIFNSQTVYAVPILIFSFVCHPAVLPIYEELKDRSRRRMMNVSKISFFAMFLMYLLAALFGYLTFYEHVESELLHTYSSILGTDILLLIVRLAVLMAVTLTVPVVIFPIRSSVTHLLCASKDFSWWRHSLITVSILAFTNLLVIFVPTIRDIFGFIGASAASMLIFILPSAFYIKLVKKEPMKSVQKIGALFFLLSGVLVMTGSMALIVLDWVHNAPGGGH

[19] = molecular target: T2, Neutral amino acid transporter B(0) (Homo sapiens) (UniProt Q15758); assay: Inhibition of ASCT2 in HEK293 cells assessed as reduction in [13C]-Gln uptake at 50 uM relative to control; format: cell-based
T2 sequence (whole entry): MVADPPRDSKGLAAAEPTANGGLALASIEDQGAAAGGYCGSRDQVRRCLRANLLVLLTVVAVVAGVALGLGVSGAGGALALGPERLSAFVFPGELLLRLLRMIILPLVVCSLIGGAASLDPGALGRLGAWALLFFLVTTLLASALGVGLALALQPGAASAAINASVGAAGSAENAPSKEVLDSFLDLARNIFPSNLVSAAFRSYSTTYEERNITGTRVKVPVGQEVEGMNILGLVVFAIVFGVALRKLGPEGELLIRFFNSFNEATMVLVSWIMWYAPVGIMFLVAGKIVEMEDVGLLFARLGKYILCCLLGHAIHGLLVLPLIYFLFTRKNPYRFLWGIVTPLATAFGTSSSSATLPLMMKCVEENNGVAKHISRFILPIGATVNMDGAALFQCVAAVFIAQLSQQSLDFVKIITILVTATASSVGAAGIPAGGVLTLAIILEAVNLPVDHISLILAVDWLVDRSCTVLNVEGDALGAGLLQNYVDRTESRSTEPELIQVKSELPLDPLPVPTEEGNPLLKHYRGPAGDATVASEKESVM

A549 [20] = assay: Induction of oxidative stress in human A549 cells assessed as upregulation of ROS production incubated for 24 hrs by DCFH-DA staining based flow cytometry analysis; format: functional, cell-based; conditions: dose 5-10 µM
A549 [21] = assay: Inhibition of Gln uptake in human A549 cells assessed as reduction in fumarate level incubated for 24 hrs by LC-MS/MS analysis; format: functional, cell-based
A549 [22] = assay: Inhibition of Gln uptake in human A549 cells assessed as reduction in citrate level incubated for 24 hrs by LC-MS/MS analysis; format: functional, cell-based
[23] = molecular target: T3, Neutral amino acid transporter B(0) (Homo sapiens, UniProt Q15758); assay: Inhibition of ASCT2 in human A549 cells assessed as reduction in glutamine uptake preincubated for 5 mins followed by substrate addition and measured after 15 mins; format: cell-based
T3 sequence (Q15758 whole entry): T2 sequence (whole entry)

A549 [24] = assay: Inhibition of Gln uptake in human A549 cells assessed as reduction in intracellular glutamate level incubated for 24 hrs by LC-MS/MS analysis; format: functional, cell-based
[25] = Apparent clearance in Sprague-Dawley rat at 10 mg/kg, ip incubated for 24 hrs by LC-MS/MS analysis; format: ADME, organism-based; conditions: in vivo
[26] = Toxicity in BALB/c nude mouse assessed as effect on spleen at 25 to 50 mg/kg, ip measured after 3 weeks by H and E staining based analysis; format: organism-based; conditions: in vivo, 504 h, dose 25-50 mg/kg

MRT inf [1]	AUC(0-inf) [4]	IC50 (A549 [5])	half-life [6]	AUC(0-t) at 24 h [12]	inhibition [18]	inhibition [19]	Structure (SMILES)	Activity (A549 [2])	IC50 (NSCLC [3])	Activity (A549 [7])	Activity [8]	Activity (A549 [9])	Activity (A549 [10])	IC50 (NSCLC [11])	IC50 (NSCLC [13])	Activity [14]	inhibition (A549 [15])	inhibition in vivo at 25 mg/kg (A549 [16])	Activity (A549 [17])	Activity (A549 [20])	also measured
20.7 h	14500 ng·h/mL	5.83 µM	19.4 h	13800 ng·h/mL	inactive	98.3%	CC(C)(C)c1ccc(OCC#Cc2ccccc2)c(CN(CC[C@H](N)C(=O)O)Cc2cc(C(C)(C)C)ccc2OCC#Cc2ccccc2)c1	Active	0.12 µM	Active	Non-Toxic	Active	Active	2.36 µM	1.09 µM	Toxic	Dose-Dependent Effect	70%	Active	Dose-Dependent Effect	inhibition (A549 [21]): Active; inhibition (A549 [22]): Active; IC50 [23]: 19.2 µM; inhibition (A549 [24]): Active; CL/F [25]: 12 mL/min/kg; Activity [26]: Toxic
13.7 h	2820 ng·h/mL	10.3 µM	9.41 h	2670 ng·h/mL	inactive	93.2%	N[C@@H](CCN(Cc1ccccc1OCC#Cc1ccc(Cl)cc1)Cc1ccccc1OCC#Cc1ccc(Cl)cc1)C(=O)O	Active	7.34 µM	Active	Non-Toxic	Active	Active	22.4 µM	8.45 µM	Toxic	Dose-Dependent Effect	65%	Active	Dose-Dependent Effect	inhibition (A549 [21]): Active; inhibition (A549 [22]): Active; IC50 [23]: 5.6 µM; inhibition (A549 [24]): Active; CL/F [25]: 60.5 mL/min/kg; Activity [26]: Toxic

Source: ChEMBL document CHEMBL5537180, “Discovery of Novel Aminobutanoic Acid-Based ASCT2 Inhibitors for the Treatment of Non-Small-Cell Lung Cancer” (J Med Chem, 2024)
